Laboratory results published in patent US20230100838A1 (Revolution Medicines, Inc., priority 2019, published 2023).

Experiments:
Format in all cases: binding
[1] = biological target: T1, GDP-loaded K-Ras (1-169) G12D, C51S, C80L, C118S (Homo sapiens, UniProt P01116, C118S/C51S/C80L/G12D); test: K-Ras G12D(GDP) cross-linking assay (conjugate formation, TOF mass spectrometry); set-up: key: 0: No observed x-linking; +: 0 < x ≤ 20; ++: 20 < x ≤ 40; +++: 40 < x ≤ 100; conditions: percent covalently modified K-Ras by MS, room temperature, typical compound conc. 2, 10, 25 μM, endpoints 1 and 24 h
T1 construct: GDP-loaded K-Ras (1-169) G12D, C51S, C80L, C118S
In short: (§1)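 5 μM protein (final, from 50 μM) in HEPES/NaCl/MgCl2 buffer pH 7.4 with compound typically at 2, 10 and 25 μM, room temperature, 1 and 24 h endpoints; formic acid quench. Intact-protein LC–TOF MS; percent modification is covalent adduct peak height over total K-Ras peak height.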

[2] = biological target: K-Ras G12S (Homo sapiens, UniProt P01116, G12S); test: K-Ras G12S cross-linking assay (comparable procedure, conjugate formation, TOF mass spectrometry); set-up: key: 0: No observed x-linking
In short: as §1

[3] = biological target: T2, GDP-loaded K-Ras (1-169) C51S, C80L, C118S (Homo sapiens, UniProt P01116, C118S/C51S/C80L); test: K-Ras WT (GDP) cross-linking assay (conjugate formation, TOF mass spectrometry); set-up: key: 0: No observed x-linking; +: 0 < x ≤ 20; ++: 20 < x ≤ 40; +++: 40 < x ≤ 100; conditions: percent covalently modified K-Ras by MS, room temperature, typical compound conc. 2, 10, 25 μM, endpoints 1 and 24 h
T2 construct: GDP-loaded K-Ras (1-169) C51S, C80L, C118S
In short: as §1

[4] = Table 5, percent covalently modified K-Ras by MS
[5] = Table 4, percent covalently modified K-Ras by MS

Compound | G12D x-linking (%) ([1]; Table 5) | G12S x-linking (%) [2, 4] | WT x-linking (%) ([3]; Table 5) | G12D x-linking (%) ([1]; Table 4) | G12S x-linking (%) [2, 5] | WT x-linking (%) ([3]; Table 4)
CC(C)N=C=NC1CCN(c2ncnc3c(F)c(-c4ccccc4F)c(Cl)cc23)CC1 [Example 3] |  |  |  | + (0 < x ≤ 20) | + (0 < x ≤ 10) | + (0 < x ≤ 20)
Fc1ccccc1-c1c(Cl)cc2c(N3CCC(N=C=Nc4ccccc4)CC3)ncnc2c1F [Example 2, N-(1-(6-chloro-8-fluoro-7-(2-fluorophenyl)quinazolin-4-yl)piperidin-4-yl)-N-phenylmethanediimine] |  |  |  | + (0 < x ≤ 20) | + (0 < x ≤ 10) | + (0 < x ≤ 20)
Cc1cccc2cccc(N3CCc4c(nc(OC[C@@H]5CCCN5C)nc4N4CCC(N=C=NCc5ccccc5)CC4)C3)c12 [Example 24, N-benzyl-N-(1-(7-(8-methylnaphthalen-1-yl)-2-(((S)-1-methylpyrrolidin-2-yl)methoxy)-5,6,7,8-tetrahydropyrido[3,4-d]pyrimidin-4-yl)piperidin-4-yl)methanediimine] |  |  |  | + (0 < x ≤ 20) | + (0 < x ≤ 10) | + (0 < x ≤ 20)
O=C(C1CCN(c2ncnc3c(F)c(-c4ccccc4F)c(Cl)cc23)CC1)C(F)(F)F [Example 18, 1-(1-(6-chloro-8-fluoro-7-(2-fluorophenyl)quinazolin-4-yl)piperidin-4-yl)-2,2,2-trifluoroethan-1-one] |  |  |  | 0 | 0 | 0
COc1ccc(N=C=NC2CCN(c3ncnc4c(F)c(-c5ccccc5F)c(Cl)cc34)CC2)cc1 [Example 5, N-(1-(6-chloro-8-fluoro-7-(2-fluorophenyl)quinazolin-4-yl)piperidin-4-yl)-N-(4-methoxyphenyl)methanediimine] |  |  |  | 0 | 0 | 0
COCCN=C=NC1CCN(c2nc(OC[C@@H]3CCCN3C)nc3c2CCN(c2cccc4cccc(C)c24)C3)CC1 [Example 20, N-(2-methoxyethyl)-N-(1-(7-(8-methylnaphthalen-1-yl)-2-(((S)-1-methylpyrrolidin-2-yl)methoxy)-5,6,7,8-tetrahydropyrido[3,4-d]pyrimidin-4-yl)piperidin-4-yl)methanediimine] |  |  |  | +++ (40 < x ≤ 100) | ++ (10 < x ≤ 100) | ++ (20 < x ≤ 100)
Cc1cccc2cccc(N3CCc4c(nc(OC[C@@H]5CCCN5C)nc4NCCN(C)C(=O)NCCCl)C3)c12 [Example 37, (S)-3-(2-chloroethyl)-1-methyl-1-(2-((7-(8-methylnaphthalen-1-yl)-2-((1-methylpyrrolidin-2-yl)methoxy)-5,6,7,8-tetrahydropyrido[3,4-d]pyrimidin-4-yl)amino)ethyl)urea] |  |  |  | 0 | 0 | 0
O=C(NCCCl)NCCNc1ncnc2c(F)c(-c3ccccc3F)c(Cl)cc12 [Example 12, 1-(2-((6-chloro-8-fluoro-7-(2-fluorophenyl)quinazolin-4-yl)amino)ethyl)-3-(2-chloroethyl)urea] |  |  |  | 0 | 0 | 0

Other lines, results leading:

G12D x-linking (%) ([1]; Table 5) | G12S x-linking (%) [2, 4] | WT x-linking (%) ([3]; Table 5) | G12D x-linking (%) ([1]; Table 4) | G12S x-linking (%) [2, 5] | WT x-linking (%) ([3]; Table 4) | Compound
+ (0 < x ≤ 20) | + (0 < x ≤ 10) | + (0 < x ≤ 20) |  |  |  | COc1ccccc1CN=C=NC1CCN(c2nc(OC[C@@H]3CCCN3C)nc3c2CCN(c2cccc4cccc(C)c24)C3)CC1 [Example 81, N-(2-methoxybenzyl)-N-(1-(7-(8-methylnaphthalen-1-yl)-2-(((S)-1-methylpyrrolidin-2-yl)methoxy)-5,6,7,8-tetrahydropyrido[3,4-d]pyrimidin-4-yl)piperidin-4-yl)methanediimine]
+++ (40 < x ≤ 100) | ++ (10 < x ≤ 100) | ++ (20 < x ≤ 100) |  |  |  | COCCN=C=N[C@H]1CCN(c2nc(OC[C@@H]3CCCN3C)nc3c2CCN(c2cccc4cccc(C)c24)C3)C1 [Example 74, N-(2-methoxyethyl)-N—((S)-1-(7-(8-methylnaphthalen-1-yl)-2-(((S)-1-methylpyrrolidin-2-yl)methoxy)-5,6,7,8-tetrahydropyrido[3,4-d]pyrimidin-4-yl)pyrrolidin-3-yl)methanediimine]
 |  |  | +++ (40 < x ≤ 100) | ++ (10 < x ≤ 100) | ++ (20 < x ≤ 100) | COc1ccc(CN=C=NCCN(C)c2nc(OC[C@@H]3CCCN3C)nc3c2CCN(c2cccc4cccc(C)c24)C3)cc1 [Example 29, N-(2-((((4-methoxybenzyl)imino)methylene)amino)ethyl)-N-methyl-7-(8-methylnaphthalen-1-yl)-2-(((S)-1-methylpyrrolidin-2-yl)methoxy)-5,6,7,8-tetrahydropyrido[3,4-d]pyrimidin-4-amine]
 |  |  | ++ (20 < x ≤ 40) | ++ (10 < x ≤ 100) | + (0 < x ≤ 20) | Cc1ccnc(C(C)C)c1-n1c(=O)nc(N(C)CCCN=C=NCc2ccccc2)c2cc(F)c(-c3ccccc3F)nc21 [Example 57]
 |  |  | 0 | 0 | 0 | Cc1cccc2cccc(N3CCc4c(nc(OC[C@@H]5CCCN5C)nc4N4CCN(C5=NCCO5)[C@@H](CC#N)C4)C3)c12 [Example 38, 2-((S)-1-(4,5-dihydrooxazol-2-yl)-4-(7-(8-methylnaphthalen-1-yl)-2-(((S)-1-methylpyrrolidin-2-yl)methoxy)-5,6,7,8-tetrahydropyrido[3,4-d]pyrimidin-4-yl)piperazin-2-yl)acetonitrile]
++ (20 < x ≤ 40) | + (0 < x ≤ 10) | + (0 < x ≤ 20) |  |  |  | Cc1cccc2cccc(N3CCc4c(nc(OC[C@@H]5CCCN5C)nc4N4CCC(N=C=NCCCN(C)c5ccccn5)CC4)C3)c12 [Example 91, N-methyl-N-(3-((((1-(7-(8-methylnaphthalen-1-yl)-2-(((S)-1-methylpyrrolidin-2-yl)methoxy)-5,6,7,8-tetrahydropyrido[3,4-d]pyrimidin-4-yl)piperidin-4-yl)imino)methylene)amino)propyl)pyridin-2-amine]
 |  |  | + (0 < x ≤ 20) | + (0 < x ≤ 10) | + (0 < x ≤ 20) | COc1ccc(CN=C=NC2CCN(c3nc(OC[C@@H]4CCCN4C)nc4c3CCN(c3cccc5cccc(C)c35)C4)CC2)cc1 [Example 50, N-(4-methoxybenzyl)-N-(1-(7-(8-methylnaphthalen-1-yl)-2-(((S)-1-methylpyrrolidin-2-yl)methoxy)-5,6,7,8-tetrahydropyrido[3,4-d]pyrimidin-4-yl)piperidin-4-yl)methanediimine]
+++ (40 < x ≤ 100) | ++ (10 < x ≤ 100) | ++ (20 < x ≤ 100) |  |  |  | Cc1cccc2cccc(N3CCc4c(nc(OC[C@@H]5CCCN5C)nc4N4CCC(N=C=NCCCn5ccnc5)CC4)C3)c12 [Example 88, N-(3-(1H-imidazol-1-yl)propyl)-N-(1-(7-(8-methylnaphthalen-1-yl)-2-(((S)-1-methylpyrrolidin-2-yl)methoxy)-5,6,7,8-tetrahydropyrido[3,4-d]pyrimidin-4-yl)piperidin-4-yl)methanediimine]
 |  |  | 0 | 0 | 0 | Cc1cccc2cccc(N3CCc4c(nc(OC[C@@H]5CCCN5C)nc4NCCN(C)C4=NCCO4)C3)c12 [Example 41, (S)—N^1-(4,5-dihydrooxazol-2-yl)-N^1-methyl-N^2-(7-(8-methylnaphthalen-1-yl)-2-((1-methylpyrrolidin-2-yl)methoxy)-5,6,7,8-tetrahydropyrido[3,4-d]pyrimidin-4-yl)ethane-1,2-diamine]
 |  |  | + (0 < x ≤ 20) | + (0 < x ≤ 10) | + (0 < x ≤ 20) | CC(=O)N1CC1C(=O)N1CCN(c2nc(OC[C@@H]3CCCN3C)nc3c2CCN(c2cccc4cccc(C)c24)C3)CC1 (stereo partly drawn) [Example 47, 1-(2-(4-(7-(8-methylnaphthalen-1-yl)-2-(((S)-1-methylpyrrolidin-2-yl)methoxy)-5,6,7,8-tetrahydropyrido[3,4-d]pyrimidin-4-yl)piperazine-1-carbonyl)aziridin-1-yl)ethan-1-one]
 |  |  | + (0 < x ≤ 20) | + (0 < x ≤ 10) | + (0 < x ≤ 20) | COCCN=C=NC1CCN(c2nc(=O)n(-c3c(C)ccnc3C(C)C)c3nc(-c4ccccc4F)c(F)cc23)CC1 [Example 54, 6-fluoro-7-(2-fluorophenyl)-1-(2-isopropyl-4-methylpyridin-3-yl)-4-(4-((((2-methoxyethyl)imino)methylene)amino)piperidin-1-yl)pyrido[2,3-d]pyrimidin-2(1H)-one]
+++ (40 < x ≤ 100) | ++ (10 < x ≤ 100) | ++ (20 < x ≤ 100) |  |  |  | Cc1cccc2cccc(N3CCc4c(nc(OC[C@@H]5CCCN5C)nc4N4CCC(N=C=NCCN(C)c5ccncn5)CC4)C3)c12 [Example 92, N-methyl-N-(2-((((1-(7-(8-methylnaphthalen-1-yl)-2-(((S)-1-methylpyrrolidin-2-yl)methoxy)-5,6,7,8-tetrahydropyrido[3,4-d]pyrimidin-4-yl)piperidin-4-yl)imino)methylene)amino)ethyl)pyrimidin-4-amine]
